According to patent US8715155B2, “Embryo development and survival” (University of Tennessee Research Foundation, priority 2005, dated 2014):
Where two headings read alike, the source gives them in different places.

How the values were obtained:
recipient cattle = conditions: intramuscular injection immediately prior to or after non-surgical embryo transfer; vs controls; cited from earlier work
[1] = tested on: 16- to 32-cell pre-compacted (in vitro-produced) embryos; assay: Culture of pre-compacted (in vitro-produced) embryos with PGF2α or PGE2; type: cell-based, bovine; conditions: vs control
Protocol: Embryos are produced by a modified protocol for in vitro production of embryos described by Edwards and Hansen, Biol. Reprod. 55:340-346 (1996). Pre-compacted 16- to 32-cell stage embryos are rapidly washed in KSOM media (Biggers, J. D. 1991. J. Reprod. Fertil. 91:543) supplemented with polyvinyl alcohol (PVA) 3 mg/ml (0.3%). The embryos are evaluated for quality (normal shape, defined blastomeres, extruded blastomeres, cytoplasmic fragmentation, even cytoplasm), are evenly sorted in four groups (formed by embryos of good quality), are transferred to experimental treatments in a 4-well plate as described below, and are returned to the incubator (5.5% CO2, 7% O2, and 87.5% N2 at 38.5° C.). Embryos remain in each treatment for 4 additional days. Embryo development is assessed using IETS (International Embryo Transfer Society) guidelines for classification of bovine embryos.
Dilutions (i.e., treatments) of PGF2α (Cayman Chemical Co.; Ann Arbor, Mich.) are prepared to obtain 0, 1, 10 and 100 ng/mL. Treatments are placed in each well of a 4-well plate (500 μL/well) and equilibrated in the incubator (5.5% CO2, 7% O2, and 87.5% N2 at 38.5° C.) for at least 5 h prior to embryo placement. […]
Data are analyzed to test for blastocyst development and hatching rates using an incomplete block design and a randomized block design, respectively. […]

[2] = tested on: Pre-compacted 16- to 32-cell stage bovine embryos; conditions: 1 ng/ml PGF on days 4 to 6 (48 h culture)
Protocol: Pre-compacted 16- to 32-cell stage bovine embryos (day 4 post fertilization) are washed in KSOM-PVA and divided into four groups, each of which is cultured for 48 hours in KSOM-PVA containing one of the following: (1) 1000 nM AL-8810, n=95 (AL-8810 group); (2) 1 ng/ml PGF, n=91 (PGF group); (3) 1000 nM AL-8810+1 ng/ml PGF, n=90 (AL-8810+PGF group); or (4) KSOM-PVA without AL-8810 or PGF, n=84 (Control group).
Following the 48 hour culture, embryos from each group are placed in HEPES-TALP and embryonic development is assessed by a technician who is uninformed of the treatments of the embryos in each group. Embryos from each treatment group are washed in KSOM-PVA and transferred to a 4-well plate with KSOM-PVA for further culture until day 8 post fertilization, when embryonic development is again assessed.

[3] = tested on: compacted (in vivo-derived) morula stage embryos; assay: Culture of compacted (in vivo-derived) morula-stage embryos with PGF2α; type: cell-based, bovine; conditions: 0.1, 1 or 10 ng/mL PGF2α for 24 h
Protocol: In vivo-derived glycerol-frozen morula-stage bovine embryos are thawed utilizing a three-step glycerol removal procedure. After washing, embryos are allowed to regain normal morphology for 30 min in Vigro holding medium and are sorted by stage of development and quality according with the IETS guidelines for classification of bovine embryos. For this study, a total of 4 replicates are used.
Schrick, et al, Biol. Reprod. 49:617-621 (1993) reported 0.64 ng/mL of PGF2α in flush media from short cycle cows and a negative association of PGF2α concentration with embryo quality. Based on these findings, concentrations of 0 (control, KSOM-PVA), 0.1, 1, and 10 ng/mL of PGF2α in culture medium are selected as treatments. Each treatment is placed in a different well of a 4-well plate (500 μL/well) and then maintained in the incubator (5.5% CO2, 7% O2, and 87.5% N2 at 38.5° C.) for at least 5 h before placement of embryos to allow equilibration of medium. […]
Morula embryos (Stage 4) of quality grade 1, 2 or 3 are rapidly washed four times in KSOM-PVA and randomly assigned to one of four treatments: 1) control (n=110); 2) 0.1 ng/mL PGF2α (n=108); 3) 1 ng/mL PGF2α (n=109), 4) 10 ng/mL PGF2α (n=109) and are placed in the incubator (5.5% CO2, 7% O2, and 87.5% N2 at 38.5° C.). […] Data are analyzed as in Example 1.a.

[4] = tested on: progestin-supplemented cows; conditions: cited from earlier work

## Cc1c(Nc2ncccc2C(=O)O)cccc1C(F)(F)F [flunixin meglamine]
Recipient cattle
  pregnancy rates: Pregnancy rates were significantly higher

## CCCCC[C@H](O)/C=C/[C@H]1[C@H](O)CC(=O)[C@@H]1C/C=C\CCCC(=O)O [PGE2, Prostaglandin E2]
[1]; 5 ng/mL PGE2 in medium, P>0.10
  blastocyst development: does not differ between control and PGE2 treatments

## prostaglandin F2α [PGF2α]
[2]
  percentage of embryos reaching blastocyst stage on day 8: decreases the percentage of embryos reaching blastocyst stage on day 8
[1]; 1, 10 or 100 ng/mL PGF2α in medium, 4 days culture, P=0.002
  blastocyst development: reduced blastocyst development when compared to control
[3]; then 48 h without, P>0.10
  development at least two stages beyond morula (IETS guidelines): does not differ between treatments
[3]; vs control, P=0.05
  hatching rates: decreased hatching rates when compared to control
[4]; PGF2α administered between days 5 and 8 of pregnancy, vs saline controls
  pregnancy rates: decreased pregnancy rates compared to saline controls
[4]; PGF2α administered on days 10 to 13 or days 15 to 18
  pregnancy rates: no effect on pregnancy rates
